What follows are molecules tested against T1, human NEP (Homo sapiens, UniProt P08473) (assay: In vitro enzyme inhibition assay at human NEP (fluorogenic peptide substrate)). Settings: pKi values at human NEP (recombinant), given as ranges.
T1 construct: purchased R&D Systems, Minneapolis, Minn; 1182-ZN
Format: biochemical
Description: The inhibitory activities of compounds at human and rat neprilysin (EC 3.4.24.11; NEP) and human angiotensin converting enzyme (ACE) were determined using in vitro assays as described below.
Recombinant human NEP and recombinant human ACE were obtained commercially (R&D Systems, Minneapolis, Minn., catalog numbers 1182-ZN and 929-ZN, respectively). The fluorogenic peptide substrate Mca-D-Arg-Arg-Leu-Dap-(Dnp)-OH (Medeiros et al. (1997) Braz. J. Med. Biol. Res. 30:1157-62; Anaspec, San Jose, Calif.) and Abz-Phe-Arg-Lys(Dnp)-Pro-OH (Araujo et al. (2000) Biochemistry 39:8519-8525; Bachem, Torrance, Calif.) were used in the NEP and ACE assays respectively.
The assays were performed in 384-well white opaque plates at 37° C. using the fluorogenic peptide substrates at a concentration of 10 μM in Assay Buffer (NEP: 50 mM HEPES, pH 7.5, 100 mM NaCl, 0.01% polyethylene glycol sorbitan monolaurate (Tween-20), […]; ACE: 50 mM HEPES, pH 7.5, 100 mM NaCl, 0.01% Tween-20, 1 μM ZnSO4).
Test compounds were assayed over the range of concentrations from 10 μM to 20 pM. Test compounds were added to the enzymes and incubated for 30 minute at 37° C. prior to initiating the reaction by the addition of substrate. Reactions were terminated after 20 minutes of incubation at 37° C. by the addition of glacial acetic acid to a final concentration of 3.6% (v/v).
Plates were read on a fluorometer with excitation and emission wavelengths set to 320 nm and 405 nm, respectively. Inhibition constants were obtained by nonlinear regression of the data using the equation (GraphPad Software, Inc., San Diego, Calif.): ν=ν0/[1+(I/K′)] where ν is the reaction rate, ν0 is the uninhibited reaction rate, I is the inhibitor concentration and K′ is the apparent inhibition constant.
Compounds of the invention were tested in this assay and found to have pKi values at human NEP as follows.

T1 sequence (P08473 52-750 limits assumed): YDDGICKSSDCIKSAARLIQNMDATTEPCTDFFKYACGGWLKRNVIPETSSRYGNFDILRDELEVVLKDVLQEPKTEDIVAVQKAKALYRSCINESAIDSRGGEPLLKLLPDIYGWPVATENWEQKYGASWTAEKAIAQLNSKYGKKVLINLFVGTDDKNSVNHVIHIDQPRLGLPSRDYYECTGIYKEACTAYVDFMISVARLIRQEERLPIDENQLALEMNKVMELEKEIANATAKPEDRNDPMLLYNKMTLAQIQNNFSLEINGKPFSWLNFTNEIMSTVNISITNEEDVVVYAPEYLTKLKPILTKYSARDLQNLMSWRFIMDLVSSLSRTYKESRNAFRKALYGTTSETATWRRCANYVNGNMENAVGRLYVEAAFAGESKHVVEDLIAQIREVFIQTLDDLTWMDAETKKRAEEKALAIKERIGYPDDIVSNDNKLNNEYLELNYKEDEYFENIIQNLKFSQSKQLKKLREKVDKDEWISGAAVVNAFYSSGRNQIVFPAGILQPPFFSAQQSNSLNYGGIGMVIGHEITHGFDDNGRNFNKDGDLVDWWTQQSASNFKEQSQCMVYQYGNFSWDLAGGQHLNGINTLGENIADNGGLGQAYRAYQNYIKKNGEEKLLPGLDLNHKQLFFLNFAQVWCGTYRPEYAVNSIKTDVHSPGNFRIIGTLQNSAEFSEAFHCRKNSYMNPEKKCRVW

| Ki [nM] | SMILES |
| --- | --- |
| 12.6 to 100 | CC(O)(CN(Cc1ccc(-c2ccccc2)cc1)NC(=O)c1cc(O)n[nH]1)C(=O)O (stereo not drawn) [Example 4-5, 3-[N-Biphenyl-4-ylmethyl-N′-(5-hydroxy-2H-pyrazole-3-carbonyl)-hydrazino]-2-hydroxy-2-methyl-propionic acid] |
| 1.26 to 10 | CC(O)(CN(Cc1ccc(-c2ccccc2)cc1)NC(=O)c1cc(C(=O)O)n[nH]1)C(=O)O (stereo not drawn) [Example 4-6, 5-[N′-Biphenyl-4-ylmethyl-N′-(2-carboxy-2-hydroxy-propyl)-hydrazinocarbonyl]-1H-pyrazole-3-carboxylic acid] |
| 1.26 to 10 | CC(O)(C[C@@H](Cc1ccc(-c2ccccc2)cc1)NC(=O)c1cc(F)c2nn[nH]c2c1)C(=O)O (stereo partly drawn) [Example 2-4, (R)-5-Biphenyl-4-yl-4-[(7-fluoro-3H-benzotriazole-5-carbonyl)-amino]-2-hydroxy-2-methyl-pentanoic acid] |
| ≤ 1 | C[C@@](O)(C[C@@H](Cc1ccc(-c2ccccc2)cc1)NC(=O)c1cnc(O)nc1)C(=O)O [Example 2-9, (2R,4R)-5-Biphenyl-4-yl-2-hydroxy-4-[(2-hydroxy-pyrimidine-5-carbonyl)-amino]-2-methyl-pentanoic acid] |
| 1.26 to 10 | COCCN(C)C(=O)c1cc(C(=O)N[C@H](Cc2ccc(-c3ccccc3)cc2)CC(C)(C)C(=O)O)[nH]n1 [Example 9-15, (R)-5-Biphenyl-4-yl-4-({5-[(2-methoxy-ethyl)-methyl-carbamoyl]-2H-pyrazole-3-carbonyl}-amino)-2,2-dimethyl-pentanoic acid] |
| 1.26 to 10 | C[C@@](O)(C[C@@H](Cc1ccc(-c2ccccc2)cc1)NC(=O)c1cnn[nH]1)C(=O)O [Example 1B, (2R,4R)-5-Biphenyl-4-yl-2-hydroxy-2-methyl-4-[(3H-[1,2,3]triazole-4-carbonyl)-amino]-pentanoic acid] |
| ≤ 1 | CC(C)(C[C@@H](Cc1ccc(-c2ccccc2)cc1)NC(=O)c1cc(C(=O)O)n[nH]1)C(=O)O [Example 9-6, 5-((R)-1-Biphenyl-4-ylmethyl-3-carboxy-3-methyl-butylcarbamoyl)-1H-pyrazole-3-carboxylic acid] |
| ≤ 1 | C[C@@](O)(CN(Cc1ccc(-c2cc(Cl)ccc2F)cc1)NC(=O)c1cn(O)nn1)C(=O)O [Example 7-3, (R)-3-[N-(5′-Chloro-2′-fluorobiphenyl-4-ylmethyl)-N′-(1-hydroxy-1H-[1,2,3]triazole-4-carbonyl)-hydrazino]-2-hydroxy-2-methyl-propionic acid] |
| ≤ 1 | CC(C)(C[C@@H](Cc1ccc(-c2ccccc2)cc1)NC(=O)c1cc(O)no1)C(=O)O [Example 8A, (R)-5-Biphenyl-4-yl-4-[(3-hydroxy-isoxazole-5-carbonyl)-amino]-2,2-dimethyl-pentanoic acid] |
| 1.26 to 10 | C[C@@](O)(CN(Cc1ccc(-c2cccc(Cl)c2)cc1)NC(=O)c1cnn[nH]1)C(=O)O [Example 7-1, (R)-3-[N-(3′-Chlorobiphenyl-4-ylmethyl)-N′-(3H-[1,2,3]triazole-4-carbonyl)-hydrazino]-2-hydroxy-2-methyl-propionic acid] |
| 12.6 to 100 | CC(O)(CN(Cc1ccc(-c2ccccc2)cc1)NC(=O)c1cnc(O)nc1)C(=O)O (stereo not drawn) [Example 4-4, 3-[N-Biphenyl-4-ylmethyl-N′-(2-hydroxy-pyrimidine-5-carbonyl)-hydrazino]-2-hydroxy-2-methyl-propionic acid] |
| 12.6 to 100 | O=C(N[C@H](Cc1ccc(-c2ccccc2)cc1)CC1(C(=O)O)CC1)c1cc(O)n[nH]1 [Example 11-10, 1-{(R)-3-Biphenyl-4-yl-2-[(5-hydroxy-2H-pyrazole-3-carbonyl)-amino]-propyl}-cyclopropanecarboxylic acid] |

Source: patent US9725448B2, “Neprilysin inhibitors” (THERAVANCE BIOPHARMA R&D IP, LLC, priority 2011, dated 2017)
